From US6720346B2, “Thiazole benzamide derivatives and pharmaceutical compositions for inhibiting cell proliferation” (Agouron Pharmaceuticals, Inc., priority 2001, dated 2004) come the findings set out here.

For one assay, the target named is T1, CDK2/cyclin A (Homo sapiens, UniProt P24941).
T1 construct: made in house; host or cells: CDK2: insect cells (baculovirus); cyclin A: E. coli
Put plainly: Inhibition of CDK2/cyclin A retinoblastoma kinase activity (Ki; % inhibition). It is filed as biochemical. The gist of the method:
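Radiometric filter assay of CDK2/proteolyzed cyclin A (baculovirus-expressed human CDK2, 10 or 19 nM) phosphorylating an Rb fragment with 25 μM [³²P/³³P]ATP in pH 7.4 HEPES, 2% DMSO, at 30 °C for 60 or 75 min under initial-rate conditions. Library compounds screened at 30 nM for % inhibition; apparent Ki from concentration series fit to competitive or tight-binding inhibition equations.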

The target in another assay is T2, human CDK4/cyclin D3 (Homo sapiens, UniProt P11802).
T2 construct: made in house; host or cells: insect cells co-infected with baculovirus vectors
Put plainly: Inhibition of CDK4/cyclin D retinoblastoma kinase activity (Ki; % inhibition). It is filed as biochemical. In a few lines:
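Insect-cell-expressed CDK4 with truncated cyclin D3 (1-264), 5 nM, phosphorylating His-tagged Rb fragment (386-928) with 25 μM [32/33P]ATP at pH 7.4, 30 °C, 20 min (60 min for tight binders). Filter capture, phosphorimager read; % inhibition at 30 nM compound, Ki from competitive or tight-binding fits.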

The test system of a further assay is HCT-116 cell line. Put plainly: Inhibition of cell growth, MTT tetrazolium salt assay. It is filed as cell-based. In a few lines:
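Cells in McCoy's 5A medium were given 4 h before compound addition in 0.5% (v/v) DMSO, then incubated 3–5 days at 37 °C, 5% CO2. After 4 h with 0.2 mg/mL MTT, DMSO-solubilized formazan was read at 540 nm; 50% and 90% growth-inhibitory concentrations came from semi-log plots against vehicle controls.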
A general note: Tetrazolium assays rely on reduction of a dye to a coloured formazan, in cell work by metabolically active cells.

[1] abbreviates: HCT-116 cells, 0.25 μM compound.

T2 sequence (P11802 whole entry): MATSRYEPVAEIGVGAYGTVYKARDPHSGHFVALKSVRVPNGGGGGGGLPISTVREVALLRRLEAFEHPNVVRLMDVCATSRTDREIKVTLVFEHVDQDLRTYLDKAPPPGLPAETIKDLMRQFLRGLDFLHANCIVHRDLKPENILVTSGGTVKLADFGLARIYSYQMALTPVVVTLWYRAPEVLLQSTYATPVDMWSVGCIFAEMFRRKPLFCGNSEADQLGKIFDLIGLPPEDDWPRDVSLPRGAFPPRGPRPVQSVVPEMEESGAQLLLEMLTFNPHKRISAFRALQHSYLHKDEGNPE
T2 sequence (P30281 1-264 partner limits assumed): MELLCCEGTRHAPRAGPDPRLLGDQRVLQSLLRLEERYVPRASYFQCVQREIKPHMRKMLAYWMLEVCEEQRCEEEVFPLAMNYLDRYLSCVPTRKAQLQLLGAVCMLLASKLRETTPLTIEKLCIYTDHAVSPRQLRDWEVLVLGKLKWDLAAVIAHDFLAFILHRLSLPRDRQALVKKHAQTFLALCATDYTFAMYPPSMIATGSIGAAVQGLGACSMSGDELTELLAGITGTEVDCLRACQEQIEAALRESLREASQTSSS

Take `N#Cc1cccc(NC(=O)c2ccc(Nc3nc(N)c(C(=O)c4c(F)cccc4F)s3)cc2)c1` [Example G60]: the “CDK2 % Inhibition at 0.03 μM” value at CDK2/cyclin A (at 0.03 μM) amounted to 12%. Also, the “CDK4 % Inhibition at 0.03 μM” value at human CDK4/cyclin D3 (at 0.03 μM) is recorded as 18%. Besides, the “HCT-116 % Inhibition at 0.25 μM” value in the assay with HCT-116 cell line (HCT-116, at 0.25 μM) stood at 66%.

Consider `CCOC(=O)CC(C)NC(=O)c1ccc(Nc2nc(N)c(C(=O)c3c(F)cccc3F)s2)cc1` (stereo not shown) [Example G117], for which the “CDK2 % Inhibition at 0.03 μM” value on CDK2/cyclin A (at 0.03 μM) was 4%. For the same molecule, the “CDK4 % Inhibition at 0.03 μM” value on human CDK4/cyclin D3 (at 0.03 μM) stood at 13%. The “HCT-116 % Inhibition at 0.1 μM” value in the assay on HCT-116 cell line (HCT-116, at 0.1 μM) is 6%. For the same molecule, the “HCT-116 % Inhibition at 0.25 μM” value in the assay with HCT-116 cell line (HCT-116, at 0.25 μM) is reported as 55%.

`Nc1nc(Nc2ccc(C(=O)Nc3cccc(Br)c3)cc2)sc1C(=O)c1c(F)cccc1F` [Example G287]: the “CDK2 % Inhibition at 0.03 μM” value on CDK2/cyclin A (0.03 μM compound) is listed as −8%. For the same molecule, the “CDK4 % Inhibition at 0.03 μM” value at human CDK4/cyclin D3 (0.03 μM compound) is 7%. Also, the “HCT-116 % Inhibition at 0.1 μM” value with HCT-116 cell line (HCT-116 cells, 0.1 μM compound) worked out at 9%. Besides, the “HCT-116 % Inhibition at 0.25 μM” value in the assay with HCT-116 cell line (setting [1]) turned out to be 32%.

Take `Nc1nc(Nc2ccc(C(=O)NCCc3ccccn3)cc2)sc1C(=O)c1c(F)cccc1F` [Example G140]: the “CDK2 % Inhibition at 0.03 μM” value at CDK2/cyclin A (at 0.03 μM) worked out at 15%. For the same molecule, on human CDK4/cyclin D3 (at 0.03 μM), the “CDK4 % Inhibition at 0.03 μM” value worked out at 19%. Moreover, in the assay with HCT-116 cell line (HCT-116, at 0.1 μM), the “HCT-116 % Inhibition at 0.1 μM” value was determined as 0%. For the same molecule, in the assay on HCT-116 cell line (HCT-116, at 0.25 μM), the “HCT-116 % Inhibition at 0.25 μM” value is given as 54%.

Take `Cc1ccc(CNC(=O)c2ccc(Nc3nc(N)c(C(=O)c4c(F)cccc4F)s3)cc2)cc1Cl` [Example G275]: at CDK2/cyclin A (0.03 μM compound), the “CDK2 % Inhibition at 0.03 μM” value stood at 27%. Moreover, on human CDK4/cyclin D3 (0.03 μM compound), the “CDK4 % Inhibition at 0.03 μM” value was 19%. For the same molecule, the “HCT-116 % Inhibition at 0.1 μM” value with HCT-116 cell line (HCT-116 cells, 0.1 μM compound) is listed as 25%. In addition, the “HCT-116 % Inhibition at 0.25 μM” value with HCT-116 cell line (setting [1]) is reported as 63%.

As to `Nc1nc(Nc2ccc(C(=O)Nc3ccc4ncccc4c3)cc2)sc1C(=O)c1c(F)cccc1F` [Example G75], the “CDK2 % Inhibition at 0.03 μM” value at CDK2/cyclin A (at 0.03 μM) is on record as 21%. For the same molecule, the “CDK4 % Inhibition at 0.03 μM” value at human CDK4/cyclin D3 (at 0.03 μM) is 15%. In the assay with HCT-116 cell line (HCT-116, at 0.25 μM), the “HCT-116 % Inhibition at 0.25 μM” value is given as 64%.

For the molecule `CCOc1ccccc1CCNC(=O)c1ccc(Nc2nc(N)c(C(=O)c3c(F)cccc3F)s2)cc1` [Example G380], the “CDK2 % Inhibition at 0.03 μM” value at CDK2/cyclin A (0.03 μM compound) is −19%. Further, the “CDK4 % Inhibition at 0.03 μM” value at human CDK4/cyclin D3 (0.03 μM compound) amounted to 7%. Also, the “HCT-116 % Inhibition at 0.1 μM” value in the assay on HCT-116 cell line (HCT-116 cells, 0.1 μM compound) worked out at 26%. Further, the “HCT-116 % Inhibition at 0.25 μM” value in the assay on HCT-116 cell line (setting [1]) was determined as 50%.

For `CCCCNC(=O)c1ccc(Nc2nc(N)c(C(=O)c3c(F)cccc3F)s2)cc1` [Example G186], the “CDK2 % Inhibition at 0.03 μM” value on CDK2/cyclin A (at 0.03 μM) turned out to be 7%. For the same molecule, the “CDK4 % Inhibition at 0.03 μM” value on human CDK4/cyclin D3 (at 0.03 μM) is given as 30%. Besides, the “HCT-116 % Inhibition at 0.1 μM” value with HCT-116 cell line (HCT-116, at 0.1 μM) is reported as 14%. Moreover, in the assay on HCT-116 cell line (HCT-116, at 0.25 μM), the “HCT-116 % Inhibition at 0.25 μM” value amounted to 51%.

With `Nc1nc(Nc2ccc(C(=O)NCC(O)c3ccccc3)cc2)sc1C(=O)c1c(F)cccc1F` (stereo not shown) [Example G391], the “CDK2 % Inhibition at 0.03 μM” value at CDK2/cyclin A (0.03 μM compound) is recorded as 1%. The “CDK4 % Inhibition at 0.03 μM” value on human CDK4/cyclin D3 (0.03 μM compound) is listed as −7%. For the same molecule, the “HCT-116 % Inhibition at 0.1 μM” value in the assay with HCT-116 cell line (HCT-116 cells, 0.1 μM compound) is on record as 11%. Moreover, the “HCT-116 % Inhibition at 0.25 μM” value in the assay with HCT-116 cell line (setting [1]) was 50%.

In the case of `CCN(CCNC(=O)c1ccc(Nc2nc(N)c(C(=O)c3c(F)cccc3F)s2)cc1)c1cccc(C)c1` [Example G226], the “CDK2 % Inhibition at 0.03 μM” value on CDK2/cyclin A (0.03 μM compound) amounted to 48%. The “CDK4 % Inhibition at 0.03 μM” value at human CDK4/cyclin D3 (0.03 μM compound) amounted to 44%. In the assay with HCT-116 cell line (HCT-116 cells, 0.1 μM compound), the “HCT-116 % Inhibition at 0.1 μM” value was 15%. For the same molecule, the “HCT-116 % Inhibition at 0.25 μM” value in the assay with HCT-116 cell line (setting [1]) is recorded as 56%.

Regarding `Nc1nc(Nc2ccc(C(=O)NCc3ccc(OC(F)(F)F)cc3)cc2)sc1C(=O)c1c(F)cccc1F` [Example G208], on CDK2/cyclin A (0.03 μM compound), the “CDK2 % Inhibition at 0.03 μM” value turned out to be 36%. Moreover, the “CDK4 % Inhibition at 0.03 μM” value at human CDK4/cyclin D3 (0.03 μM compound) is listed as 36%. Also, the “HCT-116 % Inhibition at 0.1 μM” value in the assay on HCT-116 cell line (HCT-116 cells, 0.1 μM compound) came to 11%. Further, the “HCT-116 % Inhibition at 0.25 μM” value with HCT-116 cell line (setting [1]) is reported as 56%.

For the molecule `Nc1nc(Nc2ccc(C(=O)NCCNc3ccc([N+](=O)[O-])cn3)cc2)sc1C(=O)c1c(F)cccc1F` [Example G242], at CDK2/cyclin A (0.03 μM compound), the “CDK2 % Inhibition at 0.03 μM” value was 43%. In addition, the “CDK4 % Inhibition at 0.03 μM” value on human CDK4/cyclin D3 (0.03 μM compound) is on record as 49%. In addition, the “HCT-116 % Inhibition at 0.1 μM” value in the assay on HCT-116 cell line (HCT-116 cells, 0.1 μM compound) is given as 34%. Further, in the assay on HCT-116 cell line (setting [1]), the “HCT-116 % Inhibition at 0.25 μM” value came to 69%.

Take `Nc1nc(Nc2ccc(C(=O)Nc3ccc(S(N)(=O)=O)cc3)cc2)sc1C(=O)c1c(F)cccc1F` [Example G82]: at CDK2/cyclin A (at 0.03 μM), the “CDK2 % Inhibition at 0.03 μM” value was determined as 24%. Also, the “CDK4 % Inhibition at 0.03 μM” value on human CDK4/cyclin D3 (at 0.03 μM) came out at 15%. For the same molecule, the “HCT-116 % Inhibition at 0.25 μM” value in the assay on HCT-116 cell line (HCT-116, at 0.25 μM) turned out to be 48%.

Consider `CC(C)[C@H](CN(C)C)NC(=O)c1ccc(Nc2nc(N)c(C(=O)c3c(F)cccc3F)s2)cc1` [Example A47, 4-[4-Amino-5-(2,6-difluoro-benzoyl)-thiazol-2-ylamino]-N-(1R-dimethylaminomethyl-2-methyl-propyl)-benzamide], for which the Ki came to 55 nM at CDK2/cyclin A (apparent Ki, CDK2/cyclin A, Rb substrate) and 5 nM at human CDK4/cyclin D3 (apparent Ki, CDK4/cyclin D3, Rb substrate). Moreover, the IC50 (usually the concentration at which inhibition is half-maximal) in the assay on HCT-116 cell line (Homo sapiens, HCT-116, 120 h, MTT, three to five days) was determined as 580 nM.
